How the values were obtained:
Assay type in all cases: in vivo
corn (Zea mays) = test: Test A postemergence, visual injury rating; settings: Zea mays, post-emergence, 240 h, 0 is no effect, 100 is complete control, read-out: Corn plant response rating (0 to 100 scale); for plant injury at 125 g/ha: 125 g ai/ha; for plant injury at 500 g/ha: 500 g ai/ha
Method in brief: (§1)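 Visual 0–100 rating (100 = complete control) taken about 10 d post-treatment relative to untreated checks. Preemergence: directed soil spray on sown loam/sand pots. Postemergence: seedlings 2–10 cm, 1–2 leaf. Non-phytotoxic solvent formulation with surfactant.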

[1] = system: wheat (Triticum aestivum); test: Test A postemergence, visual injury rating; settings: Triticum aestivum, post-emergence, 240 h, 0 is no effect, 100 is complete control, read-out: Wheat plant response rating (0 to 100 scale); for plant injury at 125 g/ha: 125 g ai/ha; for plant injury at 500 g/ha: 500 g ai/ha
Method in brief: as §1

[2] = system: giant foxtail (Setaria faberii); test: Test A postemergence, visual injury rating; settings: Setaria faberi, post-emergence, 240 h, 0 is no effect, 100 is complete control, read-out: Foxtail, Giant plant response rating (0 to 100 scale); for pest or weed control at 125 g/ha: 125 g ai/ha; for pest or weed control at 500 g/ha: 500 g ai/ha
Method in brief: as §1

[3] = system: blackgrass (Alopecurus myosuroides); test: Test A postemergence, visual injury rating; settings: Alopecurus myosuroides, post-emergence, 240 h, 0 is no effect, 100 is complete control, read-out: Blackgrass plant response rating (0 to 100 scale); for pest or weed control at 125 g/ha: 125 g ai/ha; for pest or weed control at 500 g/ha: 500 g ai/ha
Method in brief: as §1

[4] = system: Italian ryegrass (Lolium multiflorum); test: Test A postemergence, visual injury rating; settings: Lolium multiflorum, post-emergence, 240 h, 0 is no effect, 100 is complete control, read-out: Ryegrass, Italian plant response rating (0 to 100 scale); for pest or weed control at 125 g/ha: 125 g ai/ha; for pest or weed control at 500 g/ha: 500 g ai/ha
Method in brief: as §1

[5] = system: pigweed (Amaranthus retroflexus); test: Test A postemergence, visual injury rating; settings: Amaranthus retroflexus, post-emergence, 240 h, 0 is no effect, 100 is complete control, read-out: Pigweed plant response rating (0 to 100 scale); for pest or weed control at 125 g/ha: 125 g ai/ha; for pest or weed control at 500 g/ha: 500 g ai/ha
Method in brief: as §1

[6] = system: galium (catchweed bedstraw, Galium aparine); test: Test A postemergence, visual injury rating; settings: Galium, post-emergence, 240 h, 0 is no effect, 100 is complete control, read-out: Galium plant response rating (0 to 100 scale); for pest or weed control at 125 g/ha: 125 g ai/ha; for pest or weed control at 500 g/ha: 500 g ai/ha
Method in brief: as §1

[7] = system: barnyardgrass (Echinochloa crus-galli); test: Test A postemergence, visual injury rating; settings: Echinochloa crus-galli, post-emergence, 240 h, 0 is no effect, 100 is complete control, read-out: Barnyardgrass plant response rating (0 to 100 scale); for pest or weed control at 125 g/ha: 125 g ai/ha; for pest or weed control at 500 g/ha: 500 g ai/ha
Method in brief: as §1

kochia (Kochia scoparia) [8] = test: Test A postemergence, visual injury rating; settings: Bassia scoparia, post-emergence, 240 h, 0 is no effect, 100 is complete control, read-out: Kochia plant response rating (0 to 100 scale); for pest or weed control at 125 g/ha: 125 g ai/ha; for pest or weed control at 500 g/ha: 500 g ai/ha
Method in brief: as §1

[9] = system: ragweed (common ragweed, Ambrosia elatior); test: Test A postemergence, visual injury rating; settings: Ambrosia artemisiifolia, post-emergence, 240 h, 0 is no effect, 100 is complete control, read-out: Ragweed plant response rating (0 to 100 scale); for pest or weed control at 125 g/ha: 125 g ai/ha; for pest or weed control at 500 g/ha: 500 g ai/ha
Method in brief: as §1

[10] = system: pigweed (Amaranthus retroflexus); test: Test A preemergence, visual injury rating; settings: Amaranthus retroflexus, pre-emergence, 240 h, 0 to 100 scale (0 no effect, 100 complete control), read-out: Pigweed plant response rating; for pest or weed control at 125 g/ha: 125 g ai/ha; for pest or weed control at 500 g/ha: 500 g ai/ha
Method in brief: as §1

kochia (Kochia scoparia) [11] = test: Test A preemergence, visual injury rating; settings: Bassia scoparia, pre-emergence, 240 h, 0 to 100 scale (0 no effect, 100 complete control), read-out: Kochia plant response rating; for pest or weed control at 125 g/ha: 125 g ai/ha; for pest or weed control at 500 g/ha: 500 g ai/ha
Method in brief: as §1

[12] = system: morningglory (Ipomoea coccinea); test: Test C postemergence, plant response rating; settings: Ipomoea, post-emergence; for pest or weed control at 16 g/ha: 16 g ai/ha; for pest or weed control at 16 g/ha / pest or weed control at 31 g/ha: scale 0 to 100; for pest or weed control at 31 g/ha: 31 g ai/ha; for pest or weed control at 62 g/ha: 62 g ai/ha; for pest or weed control at 62 g/ha / pest or weed control at 125 g/ha: scale 0 to 100 (0 no effect, 100 complete control); for pest or weed control at 125 g/ha: 125 g ai/ha
Source text: (§2) Seeds of plant species selected from blackgrass (Alopecurus myosuroides), ryegrass, Italian (Italian ryegrass, Lolium multiflorum), wheat (winter wheat, Triticum aestivum), galium (catchweed bedstraw, Galium aparine), corn (Zea mays), crabgrass, large (large crabgrass, Digitaria sanguinalis), foxtail, giant (giant foxtail, Setaria faberii), johnsongrass (Sorghum halepense), lambsquarters (Chenopodium album), morningglory (Ipomoea coccinea), nutsedge, yellow (yellow nutsedge, Cyperus esculentus), pigweed (Amaranthus retroflexus), ragweed (common ragweed, Ambrosia elatior), soybean (Glycine max), barnyardgrass (Echinochloa crus-galli), oilseed rape (Brassica napus), pigweed, palmer (palmer pigweed, Amaranthus palmeri), waterhemp (common waterhemp, Amaranthus rudis), velvetleaf (Abutilon theophrasti), kochia (Kochia scoparia), surinam grass (Brachiaria decumbens), nightshade (eastern black nightshade, Solanum ptycanthum), wild poinsettia (Euphorbia heterophylla), windgrass (Apera spica-venti), and oat, wild (wild oat Avena fatua), were planted into a blend of loam soil and sand or a silt loam soil and treated preemergence with test chemicals formulated in a non-phytotoxic solvent mixture which included a surfactant.
(§3) At the same time, plants selected from these crop and weed species and also chickweed (common chickweed, Stellaria media), buckwheat, wild (wild buckwheat, Polygonum convolvulus), wild mustard (Sinapis arvensis), field poppy (Papaver rhoeas), field violet (Viola arvensis), geranium, cutleaf (cutleaf geranium, Geranium dissectum), Canada thistle (Cirsium arvense), and speedwell (bird's-eye speedwell, Veronica persica), were planted in pots containing Sunshine Redi-Earth® planting medium comprising spaghnum peat moss, vermiculite, starter nutrients and dolomitic limestone and treated with postemergence applications of test chemicals formulated in the same manner. Plants ranged in height from 2 to 18 cm (1- to 4-leaf stage) for postemergence treatments. Treated plants and controls were maintained in a greenhouse for 13 to 15 d, after which time all species were compared to controls and visually evaluated. Plant response ratings, summarized in Table C, are based on a scale of 0 to 100 where 0 is no effect and 100 is complete control. A dash (-) response means no test result.

[13] = system: chickweed (common chickweed, Stellaria media); test: Test C postemergence, plant response rating; settings: Stellaria media, post-emergence; for pest or weed control at 16 g/ha: 16 g ai/ha; for pest or weed control at 16 g/ha / pest or weed control at 31 g/ha: scale 0 to 100; for pest or weed control at 31 g/ha: 31 g ai/ha; for pest or weed control at 62 g/ha: 62 g ai/ha; for pest or weed control at 62 g/ha / pest or weed control at 125 g/ha: scale 0 to 100 (0 no effect, 100 complete control); for pest or weed control at 125 g/ha: 125 g ai/ha
Source text: as §2, §3

kochia (Kochia scoparia) [14] = test: Test C postemergence, plant response rating; settings: Bassia scoparia, post-emergence; for pest or weed control at 16 g/ha: 16 g ai/ha; for pest or weed control at 16 g/ha / pest or weed control at 31 g/ha: scale 0 to 100; for pest or weed control at 31 g/ha: 31 g ai/ha; for pest or weed control at 62 g/ha: 62 g ai/ha; for pest or weed control at 62 g/ha / pest or weed control at 125 g/ha: scale 0 to 100 (0 no effect, 100 complete control); for pest or weed control at 125 g/ha: 125 g ai/ha
Source text: as §2, §3

Compound | plant injury at 125 g/ha (corn (Zea mays)) [%] | plant injury at 500 g/ha (corn (Zea mays)) [%] | plant injury at 125 g/ha [1] [%] | plant injury at 500 g/ha [1] [%] | pest or weed control at 125 g/ha [2] [%] | pest or weed control at 500 g/ha [2] [%] | pest or weed control at 125 g/ha [3] [%] | pest or weed control at 500 g/ha [3] [%] | pest or weed control at 125 g/ha [4] [%] | pest or weed control at 500 g/ha [4] [%] | pest or weed control at 125 g/ha [5] [%] | pest or weed control at 500 g/ha [5] [%] | pest or weed control at 125 g/ha [6] [%] | pest or weed control at 500 g/ha [6] [%] | pest or weed control at 125 g/ha [7] [%] | pest or weed control at 500 g/ha [7] [%] | pest or weed control at 125 g/ha (kochia (Kochia scoparia) [8]) [%] | pest or weed control at 500 g/ha (kochia (Kochia scoparia) [8]) [%] | pest or weed control at 125 g/ha [9] [%] | pest or weed control at 500 g/ha [9] [%] | also measured
O=C(OCCC(F)(F)F)c1c(Cl)cccc1Oc1ncc(Cl)cn1 [Compound 15, 3,3,3-trifluoropropyl 2-chloro-6-[(5-chloro-2-pyrimidinyl)oxy]benzoate] | 50 | 90 | 20 | 100 | 90 | 100 | 90 | 100 | 60 | 90 | 100 | 100 | 100 | 100 | 90 | 100 | 100 | 100 | 20 | 40 | pest or weed control at 125 g/ha [10]: 100%; pest or weed control at 500 g/ha [10]: 100%; pest or weed control at 125 g/ha (kochia (Kochia scoparia) [11]): 100%; pest or weed control at 500 g/ha (kochia (Kochia scoparia) [11]): 100%; pest or weed control at 16 g/ha [12]: 65%; pest or weed control at 31 g/ha [12]: 75%; pest or weed control at 62 g/ha [12]: 85%; pest or weed control at 125 g/ha [12]: 90%; pest or weed control at 16 g/ha [13]: 35%; pest or weed control at 31 g/ha [13]: 80%; pest or weed control at 62 g/ha [13]: 90%; pest or weed control at 125 g/ha [13]: 90%; pest or weed control at 16 g/ha (kochia (Kochia scoparia) [14]): 90%; pest or weed control at 31 g/ha (kochia (Kochia scoparia) [14]): 95%; pest or weed control at 62 g/ha (kochia (Kochia scoparia) [14]): 95%; pest or weed control at 125 g/ha (kochia (Kochia scoparia) [14]): 95%
CC(CC(F)(F)F)OC(=O)c1c(Br)cccc1Oc1ncc(Cl)cn1 (stereo not drawn) [Compound 16, 3,3,3-trifluoro-1-methylpropyl 2-bromo-6-[(5-chloro-2-pyrimidinyl)oxy]benzoate] | 20 | 60 | 20 | 20 | 20 | 90 | 20 | 90 | 10 | 30 | 90 | 100 | 90 | 100 | 10 | 90 | 80 | 100 | 10 | 30 | pest or weed control at 125 g/ha [10]: 90%; pest or weed control at 500 g/ha [10]: 100%; pest or weed control at 125 g/ha (kochia (Kochia scoparia) [11]): 90%; pest or weed control at 500 g/ha (kochia (Kochia scoparia) [11]): 80%; pest or weed control at 16 g/ha [12]: 5%; pest or weed control at 31 g/ha [12]: 30%; pest or weed control at 62 g/ha [12]: 40%; pest or weed control at 125 g/ha [12]: 75%; pest or weed control at 16 g/ha [13]: 20%; pest or weed control at 31 g/ha [13]: 20%; pest or weed control at 62 g/ha [13]: 50%; pest or weed control at 125 g/ha [13]: 80%; pest or weed control at 16 g/ha (kochia (Kochia scoparia) [14]): 40%; pest or weed control at 31 g/ha (kochia (Kochia scoparia) [14]): 50%; pest or weed control at 62 g/ha (kochia (Kochia scoparia) [14]): 80%; pest or weed control at 125 g/ha (kochia (Kochia scoparia) [14]): 90%

Reference: US11053204B2, “Pyrimidinyloxy benzene derivatives as herbicides” (FMC Corporation, priority 2015, dated 2021)
